37 compounds from article PMC8765781, “A platform of assays for the discovery of anti-Zika small-molecules with activity in a 3D-bioprinted outer-blood-retina model” (PLoS ONE, 2022) can be followed below.

For the assay, the system named is wild-type ZIKV (Ugandan MR766 strain) in Vero cells. In words: ZIKV cytopathic effect (CPE) inhibition qHTS assay, CellTiter-Glo readout. The conditions noted are these: for AC50: Zika virus, Vero. The class given is cell-based, Zika virus. Background: Cytopathic effects are the visible damage that an infection or toxin causes in cultured cells.
Setting [1] is: read-out: Log AC50 (M) (converted).

The term AC50 denotes the concentration at which the activity in the assay is half-maximal.

Molecules are shown by their SMILES. Like-named read-outs stand apart in the source and are kept apart here.

Turning to `COc1c(Cl)cc2c([nH]c3cnccc32)c1NC(=O)c1cccnc1C` [NCGC00263021-04], the “CC-v2 (curve class classification of the dose response curve)” value (from here on “CC-v2”) is reported as -2.2, the Efficacy is -34.501 and the AC50 was determined as 6.51e-05 M. Under setting [1], the AC50 is 6.51e-05 M.
Compound `O=C1[C@H](CC[C@H](O)c2ccc(F)cc2)[C@@H](c2ccc(O)cc2)N1c1ccc(F)cc1` [NCGC00263575-07] came in with an Efficacy of -30.405 and an AC50 of 2.91e-05 M. The AC50 under setting [1] was 2.91e-05 M.
Regarding `CCN(CC)C(=O)Nc1ccc(OCC(O)CNC(C)(C)C)c(C(C)=O)c1` (centres unmarked) [NCGC00344562-02], the “CC-v2” value is -3, the Efficacy is -33.868 and half-maximal activity (AC50) was put at 3.26e-05 M. Further, the AC50 under setting [1] is 3.26e-05 M.
Turning to `CN1CCC(COc2cnc(-c3cccc(Cn4nc(-c5cccc(C#N)c5)ccc4=O)c3)nc2)CC1` [NCGC00345793-08], the Efficacy is on record as -35.437 and half-maximal activity (AC50) was put at 6.51e-05 M. For the same compound, the AC50 under setting [1] was 6.51e-05 M.
The compound `CC[C@H](CC#N)OC(=O)N[C@@H](C)c1cccc(NC(=O)Nc2ccc(-c3cnco3)c(OC)c2)c1` [NCGC00345803-05] registered an Efficacy of -31.6 and an AC50 of 7.31e-05 M. Besides, the AC50 under setting [1] was 7.31e-05 M.
In turn, `COc1cc(Nc2nc3ccccc3nc2N[S+](=O)([O-])c2ccc(NC(=O)c3ccc(C)c(OC)c3)cc2)cc(OC)c1` [NCGC00346541-08] registered an Efficacy of -33.022 and an AC50 of 5.8e-05 M. Further, the AC50 under setting [1] is 5.8e-05 M.
`C[C@H]1[C@H](C)CC[C@]2(C(=O)O)CC[C@]3(C)C(=CC[C@@H]4[C@@]5(C)C[C@@H](O)[C@H](O)[C@@](C)(CO)[C@@H]5CC[C@]43C)[C@H]12` [NCGC00346584-02]: the Efficacy was -33.569 and the AC50 worked out at 5.8e-05 M. Moreover, under setting [1], the AC50 is 5.8e-05 M.
In turn, `Cn1cc(-c2ccncc2)c(-c2ccc(OCc3ccc4ccccc4n3)cc2)n1` [NCGC00346630-05] yielded an Efficacy of -23.654 and a half-maximal activity concentration (AC50) of 2.59e-05 M. Further, under setting [1], the concentration at half-maximal activity (AC50) is 2.59e-05 M.
In turn, `O=C(CCN1CCN(C(=O)OCc2cc(Cl)cc(Cl)c2)CC1)c1ccc2[nH]c(=O)oc2c1` [NCGC00346939-05] had an Efficacy of -25.5 and an AC50 of 7.31e-05 M. Besides, the AC50 under setting [1] is 7.31e-05 M.
For `OCCCNc1cc(-c2ccnc(Nc3cccc(Cl)c3)n2)ccn1` [NCGC00346940-02], the “CC-v2” value was -2.1, the Efficacy is -105.653 and the AC50 worked out at 6.51e-05 M. Besides, under setting [1], the AC50 was 6.51e-05 M.
`c1ccc(CNc2nc(N3CCOc4ccccc43)nc3c2CCCC3)cc1` [NCGC00347065-03] registered an Efficacy of -32.702 and an AC50 of 5.17e-05 M. Under setting [1], the AC50 is 5.17e-05 M.
Turning to `CC1=CC(=O)[C@@H](O)[C@@]2(C)C1C[C@H]1OC(=O)[C@H](O)[C@@]3(O)[C@@H](C)[C@@H](O)[C@H](O)C2[C@@]13C` (some centres unmarked) [NCGC00347801-02], the “CC-v2” value is given as -1.2, the Efficacy is recorded as -51.479 and the AC50 turned out to be 1.43e-05 M. Also, under setting [1], the AC50 is 1.43e-05 M.
On to `C=C(C)C(=O)O[C@H]1[C@@H]2[C@H](C)C(=O)O[C@@H]2C[C@@H](C)[C@@H]2C=CC(=O)[C@]21C` [NCGC00347858-02], for which the “CC-v2” value is reported as -2.1, the Efficacy is on record as -111.628 and half-maximal activity (AC50) was put at 4.53e-05 M. Also, under setting [1], the AC50 was 4.53e-05 M.
As for `Nc1c([S+](=O)([O-])c2ccccc2)c2nc3ccccc3nc2n1-c1ccc(F)cc1` [NCGC00351779-01], the Efficacy is recorded as -26.957 and the half-maximal activity concentration (AC50) was 7.31e-05 M. Under setting [1], the concentration at half-maximal activity (AC50) is 7.31e-05 M.
Take `CCCNc1ccc2ncc(-c3ccc4[nH]ncc4c3)n2n1` [NCGC00370724-05]: the “CC-v2” value is recorded as -2.2, the Efficacy is -62.08 and the half-maximal activity concentration (AC50) was determined as 5.8e-05 M. For the same compound, the AC50 under setting [1] is 5.8e-05 M.
`Cc1cc(C)c2nc(-c3ccccn3)cc(C(=O)Nc3ccc([S+](=O)([O-])Nc4onc(C)c4C)cc3)c2c1` [NCGC00370745-03] returned an Efficacy of -23.798 and an AC50 of 3.26e-05 M. Also, the AC50 under setting [1] is 3.26e-05 M.
As to `O=C(c1cn(Cc2cncn2Cc2ccc(Br)cc2)cc1-c1cccc2ccccc12)N1CCOCC1` [NCGC00370772-05], the “CC-v2” value is -2.2, the Efficacy is recorded as -38.989 and half-maximal activity (AC50) was put at 3.66e-05 M. Moreover, under setting [1], the AC50 was 3.66e-05 M.
Take `CCN(CC)C(=O)c1ccc(Nc2nc(OCC3CCCCC3)c3nc[nH]c3n2)cc1` [NCGC00370819-01]: the Efficacy is reported as -42.267 and half-maximal activity (AC50) was put at 4.61e-05 M. Further, under setting [1], the AC50 is 4.61e-05 M.
Turning to `Cc1nc[nH]c1C1CCN(c2nc3cccc4c3n2CCC4=O)CC1` [NCGC00370838-01], the “CC-v2” value was -3, the Efficacy is -41.62 and half-maximal activity (AC50) was put at 1.84e-05 M. Further, under setting [1], the AC50 was 1.84e-05 M.
Take `CCCCCOc1cc2c(cc1-c1cc(/C=C/C(=O)O)ccc1O)C(C)(C)CCC2(C)C` [NCGC00370868-01]: the AC50 by setting is: (from Hill fit of the response curve, 50% of maximum activity response, 194 cherry-picked compounds, protocol name not given, read-out: AC50) 1.84e-05 M; (potency in log units (Molar) from Hill fit of the response curve, 194 cherry-picked compounds, protocol name not given, read-out: Log AC50 (converted)) 1.84e-05 M. Under “difference between neutral response and maximum compound response”, the Efficacy is reported as -36.339.
On to `C[S+](=O)([O-])NC[C@H]1CC[C@H](Nc2nc3c(s2)CCSc2ccccc2-3)CC1` [NCGC00370875-01], for which the “CC-v2” value is given as -3, the Efficacy is listed as -44.692 and the AC50 turned out to be 7.31e-05 M. Further, under setting [1], the AC50 was 7.31e-05 M.
The compound `CC1(C)CC=C(c2cnc3ccccc3c2)c2cc(C(=O)Nc3ccc(C(=O)O)cc3)ccc21` [NCGC00370906-01] had an Efficacy of -33.992 and a half-maximal activity concentration (AC50) of 5.17e-05 M. Besides, the AC50 under setting [1] was 5.17e-05 M.
Take `CC(C)c1cccc2c(-c3ccccc3)cc(-c3ccc(-c4ccc(C(=O)O)cc4)[nH]3)nc12` [NCGC00370963-01]: the “CC-v2” value is recorded as -3, the Efficacy is -43.883 and the activity was half-maximal at 2.91e-05 M (AC50). Moreover, the AC50 under setting [1] was 2.91e-05 M.
`O=C1N(CC2CCCCN2)CCN1c1ccccc1` (centres unmarked) [NCGC00370981-01]: the “CC-v2” value is on record as -3, the Efficacy is reported as -38.034 and the AC50 came to 2.91e-05 M. Further, under setting [1], the half-maximal activity concentration (AC50) is 2.91e-05 M.
Turning to `CN1CC2CN(c3ccc4oc5ccccc5c(=O)c4c3)CC2C1` (centres unmarked) [NCGC00371020-01], the Efficacy was -29.929 and the activity was half-maximal at 3.17e-05 M (AC50). The AC50 under setting [1] was 3.17e-05 M.
`Cc1cc2sc(NC(=O)Cc3ccccc3)nc2cc1Cl` [NCGC00371143-05] displayed an Efficacy of -24.072 and an AC50 of 5.8e-05 M. Also, the AC50 under setting [1] was 5.8e-05 M.
With `CN(C)c1cccc(-c2c3c(=O)n(-c4ccccc4Cl)[nH]c3cc(=O)n2C)c1` [NCGC00378460-08], the Efficacy was -22.536 and the activity was half-maximal at 2.91e-05 M (AC50). The AC50 under setting [1] is 2.91e-05 M.
Compound `CC(C)C(=O)c1cn(CC(=O)COc2ccc(Oc3ccccc3)cc2)c2ccc(C(=O)O)cc12` [NCGC00378619-01] came in with an Efficacy of -17.195 and an AC50 of 1.3e-05 M. In addition, the AC50 under setting [1] was 1.3e-05 M.
As for `CCCOc1ccc([S+](=O)([O-])N2CCN(CCO)CC2)cc1-c1nc2c(CCC)cn(CC)c2c(=O)[nH]1` [NCGC00378703-02], the Efficacy is -30.503 and the concentration at half-maximal activity (AC50) was 5.8e-05 M. The AC50 under setting [1] was 5.8e-05 M.
Consider `CCNC(=O)Nc1ccc(-c2nc3c(c(N4CCOC[C@@H]4C)n2)CCN(c2ncccn2)C3)cc1` [NCGC00378864-01], for which the Efficacy is -63.761 and half-maximal activity (AC50) was put at 2.06e-05 M. For the same compound, the AC50 under setting [1] is 2.06e-05 M.
Turning to `O=C(O)C[C@H]1CC[C@H](c2ccc(-c3ccc(Nc4ccc(C(F)(F)F)nc4)cn3)cc2)CC1` [NCGC00378933-01], the “CC-v2” value is -3, the Efficacy is listed as -46.182 and the AC50 came out at 5.8e-05 M. Moreover, the AC50 under setting [1] was 5.8e-05 M.
On to `Cc1cc(=O)oc2c(C=O)c(O)ccc12` [NCGC00379137-01], for which the “CC-v2” value is listed as -2.2, the Efficacy is -45.072 and the AC50 was 5.8e-05 M. Further, the AC50 under setting [1] was 5.8e-05 M.
Take `Nc1cccc(CNC(=O)c2ccc(Oc3ccc(OCc4cccc(F)c4)cc3)nc2)c1` [NCGC00379156-01]: the Efficacy is reported as -30.412 and half-maximal activity (AC50) was put at 7.31e-05 M. For the same compound, the AC50 under setting [1] was 7.31e-05 M.
For the compound `C=C1C(=O)CC2OC2(C)CC2OC(=O)C(=C)C2C(O)C1OC(=O)/C(C)=C\C` (centres unmarked) [NCGC00380095-01], the “CC-v2” value is -3, the Efficacy is -52.521 and the activity was half-maximal at 4.53e-05 M (AC50). For the same compound, the AC50 under setting [1] is 4.53e-05 M.
Compound `CC(=O)OCC1OC(O[C@H]2CC[C@@]3(C)C(CC[C@]4(C)C3CC=C3[C@@H]5CC(C)(C)CC[C@]5(C(=O)O)CC[C@]34C)[C@]2(C)CO)C(O)C(O)C1OC1OC(C)C(O)C(OC2OCC(O)C(O)C2O)C1O` (some centres unmarked) [NCGC00380575-01] registered an Efficacy of -26.099 and an AC50 of 7.78e-06 M. Moreover, the AC50 under setting [1] was 7.78e-06 M.
In turn, `C/C=C(\C)C(=O)O[C@H]1C=CC(=O)O[C@H]1/C=C/[C@@H](O)[C@H](C)O` [NCGC00380589-01] gave an Efficacy of -37.007 and an AC50 of 6.51e-05 M. Besides, the AC50 under setting [1] was 6.51e-05 M.
On to `CC1(C)C=CN2C(=O)C3=CCCN3C(=O)[C@@H]2C[C@@]12Nc1ccccc1C2=O` [NCGC00380729-01], for which the Efficacy is on record as -25.178 and the AC50 was found to be 4.53e-05 M. The AC50 under setting [1] is 4.53e-05 M.
